Assay results reported in publication PMC10961089, “Epidermal growth factor receptor inhibition potentiates chemotherapeutics‐mediated sensitization of metastatic breast cancer stem cells” (Cancer Reports, 2024).

Legend:
[1] = system: human CD44, ALDH1A1, Fibronectin, N‐Cadherin, Vimentin in tumor tissue; experiment: qRT-PCR of human CSC/EMT genes in tumor tissues; format: in vivo, C57BL/6 mice
Protocol: Additionally, total RNA was isolated from tumor tissues and utilized for cDNA synthesis (Thermo Scientific, Massachusetts, USA). To determine the transcriptional regulation of expression of EMT genes in tumor tissues subjected to various treatment regimes, quantitative real‐time PCR (qRT‐PCR) analysis was performed as described previously[28] using human gene‐specific forward and reverse primers of EMT genes. Amplification of Eukaryotic 18S rRNA served as an internal control and was utilized to calculate the fold change in expression.[29]
Animal studies have been carried out with the prior approval of the Institutional Animal Ethics Committee (IICT/IAEC/025/2023). C57BL/6 female mice of age 6–8 weeks (N = 35) were initially immunosuppressed with cyclophosphamide (50 mg/kg of body weight, i.p) on alternate days for 2 weeks. For generating a preclinical orthotopic xenograft tumor model, 2 × 10^6 GFP expressing sorted stable CD24^+‐breast cancer cells and CD24^−/CD44^+‐breast CSCs were orthotopically xeno‐transplanted subcutaneously at the fourth mammary fat pad of immune‐suppressed mice (n = 5/group). Subsequently, intratumoral administration of Doxorubicin at a low dose (2.5 mg/kg of body weight), high dose (10 mg/kg of body weight), and/or combinatorial treatment of the potent EGFR inhibitor, compound 1e (50 mg/kg of body weight) or the commercial EGFR inhibitor, PD153035 (50 mg/kg of body weight) with a low dose of doxorubicin was performed to the palpable tumors of breast CSCs at day‐3 post‐transplantation.

[2] = system: CD24^+‐breast cancer cells; experiment: Mammosphere forming efficiency, sorted cells; format: cell-based, human; settings: doxorubicin 0.01 μM + 1e
Protocol: (§1) TNBC cell lines—MDA‐MB‐231, MDA‐MB‐468, or the sorted CD24^+‐breast cancer cells, and CD24^−/CD44^+‐breast CSC populations from MDA‐MB‐231 [6] were seeded at a 1 × 10^4 cells/well density in mammosphere‐specific medium—Medium‐171 (Gibco, USA), supplemented with mammary epithelial growth supplement (MEGS) and B‐27 (Life technologies, Auckland, New Zealand) as described previously.[6], [26] TNBC cells or the sorted breast cancer cells and CSCs were plated onto poly‐hydroxyethyl methacrylate (Sigma‐Aldrich, USA) coated 24‐well plates and subjected to treatment with DMSO (Vehicle), Doxorubicin (0.01 and 0.1 μM) alone or with the potential EGFR inhibitors (compounds—1c, 1e, 1g, 1h, 1j, and 1k (5 μM) based on their low IC50 values) or a commercial EGFR inhibitor, PD153035 (10 μM). The suspension cultures were incubated under 5% CO2, at 37°C in a humidified atmosphere for 7 days. At the end of the treatment period, the images of mammospheres were taken at 10× magnification using a microscope (Olympus IX71, Tokyo, Japan). The size of spheres was measured using ImageJ software (NIH, Bethesda, MD, USA).

[3] = system: CD24^−/CD44^+‐breast CSCs; experiment: Mammosphere forming efficiency, sorted cells; format: cell-based, human; settings: doxorubicin 0.01 μM + 1e
Protocol: as §1

MDA‐MB‐468 = experiment: MTT cytotoxicity assay in MDA-MB-468; format: cell-based, human
Protocol: (§2) TNBC cell lines (ER^−, PR^−, HER2^−)—MDA‐MB‐231 (ATCC HTB‐26) and MDA‐MB‐468 (ATCC HTB‐132) were procured from ATCC and cultured in Roswell Park Memorial Institute Media (RPMI‐1640) and Dulbecco's Modified Eagle's Medium (DMEM), respectively, supplemented with 10% FBS and 1% Penicillin–Streptomycin solution. Cells were maintained at 5% CO2 at 37°C in a humid atmosphere.[6], [26] The control cell line, Human Embryonic Kidney—HEK‐293 (ATCC CRL‐3216) was also obtained from ATCC and cultured in DMEM.[5], [25]
(§3) To evaluate the cytotoxicity profile of the potential EGFR inhibitors (compounds) against TNBC cell lines—MDA‐MB‐231, MDA‐MB‐468, and control cell line HEK293, cells were seeded at a cell density of 5 × 10^3 cells/well in complete medium onto 96‐well plates. Here, the non‐tumoral human embryonic kidney (HEK293) epithelial cells have been utilized as a control cell line to compare the IC50 values of the compounds between cancerous and non‐cancerous cell lines with a big therapeutic window. The use of HEK293 cells as compared to other non‐cancerous cell lines are easy to maintain in culture and the results obtained from HEK293 are highly reproducible and consistent.[27] Briefly, the cells were incubated at 37°C for 12 h to attain morphology. After 12 h, cells were serum starved by replacing the complete media with media containing 2% FBS to synchronize the cells. Post‐12 h of synchronization, cells were treated with an increasing concentration (0.1, 1, 10, 100 μM) of all the compounds (1a, 1b, 1c, 1d, 1e, 1f, 1g, 1h, 1i, 1j, 1k). Separately, TNBC cells were treated with increasing concentration (0.01, 0.1, 1 μM) of Doxorubicin (Sigma‐Aldrich, St Louis, MO, USA) in presence of the selected compounds (1c, 1e, 1g, 1h, 1j, and 1k) at 5 μM concentration or combination of selected compounds (1c, 1e, 1g, 1h, 1j, and 1k) at increasing concentration (1, 2.5, 5, 10 μM) in presence of Doxorubicin (0.01 μM) for 48 h. In addition, the CD24^+‐breast cancer cells and CD24^−/CD44^+‐breast CSC populations, being sorted by Magnetic Activated Cell Sorting (MACS) from MDA‐MB‐231 cells as described previously,[6] were also treated with increasing concentrations of Doxorubicin (0.01–1 μM), in the presence or absence of 1e (10–30 μM), or PD153035 (10 μM) (Sigma‐Aldrich, St Louis, MO, USA). MTT assay was performed to evaluate the cytotoxicity of these compounds against the TNBC cell lines, and the sorted populations as described previously.[6] All the experiments were performed thrice and the IC50 values of the compounds and Doxorubicin were calculated using GraphPad Prism software version 9 (San Diego, CA, USA). Similarly, the percent inhibition of the sorted cell populations by chemotherapeutic drug, doxorubicin in the absence/presence of potent compound 1e or standard EGFR inhibitor, PD153035 was evaluated utilizing GraphPad Prism Version 9 (San Diego, CA, USA).

MDA‐MB‐231 = experiment: MTT cytotoxicity assay in MDA-MB-231; format: cell-based, human; settings: compound alone, MTT, 48 h; read-out: IC50 (μM) in MDA‐MB‐231 (mean ± SD)
Protocol: as §2, §3

SMILES: c1cncc(C(c2c[nH]c3ccccc23)c2c[nH]c3ccccc23)c1 [1e]
- expression level of human CD44 in tumor tissue ([1]; with doxorubicin low dose vs low dose doxorubicin alone): significantly decreased
- expression of human mesenchymal genes ALDH1A1, Fibronectin, N‐Cadherin, Vimentin ([1]; with low dose of doxorubicin, CSC xenograft): significantly decreased
- mammosphere forming efficiency [2]: significant decrease
- mammosphere forming efficiency [3]: significant decrease
- decrease in the IC50 of Doxorubicin in the presence of the compound (MDA‐MB‐468; MDA-MB-468, versus Doxorubicin alone): 10 fold
- IC50 (MDA‐MB‐468; compound alone, MTT, 48 h, read-out: IC50 (μM) in MDA‐MB‐468 (mean ± SD)): 36 ± 5.91 µM
- IC50 (MDA‐MB‐231): 18.6 ± 1.84 µM
